From patent US10626094B2 (La Jolla Institute of Allergy & Immunology, priority 2014, dated 2020)

Assays:
[1] = target: T1, LMPTP (Homo sapiens (Human), UniProt P24666); test: LMPTP enzyme inhibition assay with pNPP as substrate; type: biochemical; details: n = 2; AID 743308; read-out: LMPTP Orthogonal assay IC50
[2] = target: T1, LMPTP; test: mechanism of action: LMPTP activity on OMFP at increasing inhibitor concentrations (Michaelis-Menten); type: biochemical
Method: Activity of 20 nM LMPTP on OMFP substrate in the presence of increasing concentrations of ML400. Reactions were conducted at 37° C. in 50 mM Bis-Tris, pH 6.0 with 1 mM DTT and 0.01% Triton X-100. Mean±SD is shown. Lines show fitting of data to the Michaelis-Menten equation. Note decrease in both Vmax and KM with increasing inhibitor concentration.

[3] = target: VHR-1 (VH1-related phosphatase, VHR) (Homo sapiens (Human), UniProt P51452); test: VHR-1 phosphatase selectivity dose response assay; type: biochemical
Chain of VHR-1 (VH1-related phosphatase, VHR) (P51452 whole entry, canonical isoform): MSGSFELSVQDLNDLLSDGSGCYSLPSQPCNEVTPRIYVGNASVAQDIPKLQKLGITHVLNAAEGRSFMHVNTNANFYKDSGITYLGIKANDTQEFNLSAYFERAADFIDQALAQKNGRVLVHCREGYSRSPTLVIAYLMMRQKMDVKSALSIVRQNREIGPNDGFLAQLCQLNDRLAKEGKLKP
Source text: Disclosed herein is a collection of small-molecule inhibitors of the low molecular weight protein tyrosine phosphatase (LMPTP). The assays utilized in the primary and secondary screening were designed to identify allosteric inhibitors of LMPTP. […] The structure of the compounds was further optimized to generate a series of inhibitors of LMPTP-A isoform, with high selectivity over the LMPTP-B isoform, LYP and VHR, and with cellular activity. In an aspect is provided a compound having the formula: […]
LYP-1 and VHR-1 dose response assays to assess selectivity of Compound D1 against these non-homologous phosphatases.

[4] = test system: obese C57BL/6 mice on HFD; test: IPGTT glucose tolerance in high-fat diet obese mice; type: in vivo, mouse; details: 30 mg/kg IP daily, 4 weeks, 2 g glucose/kg
Method: Male C57BL/6 mice were maintained on HFD containing 60 kcal % fat for 3 months, followed by daily IP administration of 30 mg/kg Compound D1 or vehicle. After 4 weeks, IPGTT were performed using 2 g glucose/kg body weight. Mean±SEM is shown. *, p<0.05, Two-way ANOVA.

[5] = rodent pharmacokinetics in male C57BL/6 mice (IV, PO, IP); type: in vivo, mouse
Method: The inventors also examined ML400 (also described herein as MLS-0472870 or Compound D1) for its rodent pharmacokinetics. The probe Compound D1 was profiled in Male C57BL/6 Mice, with n=3 for each group studied (IV, IP and PO arms). The formulation used was 1.00 mg/mL in DMSO:Tween80:Water=5:5:90, which gave a clear solution. […] Enterohepatic circulation was also observed for this compound. This compound has acceptable parameters for future in vivo studies (see Table 4 and FIG. 13).

[6] = male, C57BL/6, mouse, in vivo, iv, […]
[7] = mouse, in vivo, male C57BL/6 mice, IP, 9.69 mg/kg
[8] = mouse, in vivo, male C57BL/6 mice, PO, 29.6 mg/kg

T1 sequence (P24666 whole entry): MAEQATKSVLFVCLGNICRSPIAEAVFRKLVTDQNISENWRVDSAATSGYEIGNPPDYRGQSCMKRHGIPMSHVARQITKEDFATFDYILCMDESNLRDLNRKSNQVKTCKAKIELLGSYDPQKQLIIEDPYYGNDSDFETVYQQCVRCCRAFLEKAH

IC50 [1]: 3.52 ± 0.33 µM | mechanism of action of LMPTP inhibition ([2]; 20 nM LMPTP, OMFP substrate, 37° C., pH 6.0): uncompetitive | effect on Vmax and KM ([2]; increasing inhibitor concentration): lowering both Vmax and KM | Fold-Selective ([3]; LMPTP over VHR-1): >60-fold | IC50 ([3]; n = 2, AID743310, read-out: Anti-target VHR-1 IC50): > 80 µM | enterohepatic circulation ([5]; male C57BL/6 mice): observed | Cl (mL/min/kg) ([5]; male C57BL/6 mice, IV, […]): Low clearance | Vdss (L/kg) ([5]; male C57BL/6 mice, IV, […]): large volume of distribution | clearance [5, 6]: 25.8 mL/min/kg | half-life [5, 6]: 39.6 h | Vd ([5]; male, C57BL/6, mouse, in vivo, iv, […], read-out: Vdss): 83.1 L/kg | AUC(0-inf) [5, 7]: 4520 ng·h/mL | Cmax [5, 7]: 365 ng/mL | Tmax [5, 7]: 0.33 h | half-life [5, 7]: 32.5 h | AUC(0-inf) [5, 8]: 6380 ng·h/mL | Cmax [5, 8]: 3210 ng/mL | Tmax [5, 8]: 3.33 h | half-life [5, 8]: 29.2 h
SMILES: COc1ccc(-c2cc(NCCCN3CCCCC3)c3ccccc3n2)cc1 [Compound D1, 2-(4-methoxyphenyl)-N-(3-(piperidin-1-yl)propyl)quinolin-4-amine]
glucose tolerance (IPGTT) [4]: Improves Glucose Tolerance
